In ChEMBL document CHEMBL1201862, “PubChem BioAssay data set” (2004):
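Briefly, cells in 96-well plates were exposed to five compound concentrations for 48 h, and endpoints were estimated by linear interpolation. GI50: concentration for 50% inhibition of growth.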 Calls of active or inactive are those of the source. Rule as the data show it: active = GI50 up to about 1.1 µM and inactive = higher.

Legend:
Assay in all cases: NCI-60 cell line screen, 48 h
SK-OV-3 = system: SK-OV-3
SF-539 = system: SF-539
OVCAR-4 = system: OVCAR-4
KM-20L2 = system: KM-20L2
IGROV-1 = system: IGROV-1
DMS-114 = system: DMS-114
UACC-62 = system: UACC-62
DLD-1 = system: DLD-1
LOX IMVI = system: LOX IMVI
COLO 205 = system: COLO 205
K562 = system: K562
HL-60 = system: HL-60
CCRF-CEM = system: CCRF-CEM
HCT-116 = system: HCT-116
ACHN = system: ACHN
TK-10 = system: TK-10
OVCAR-8 = system: OVCAR-8
SNB-19 = system: SNB-19
DMS-273 = system: DMS-273
SN12C = system: SN12C
HOP-62 = system: HOP-62
SNB-75 = system: SNB-75
SF-268 = system: SF-268
UO-31 = system: UO-31
CAKI-1 = system: CAKI-1
M14 = system: M14
SK-MEL-5 = system: SK-MEL-5
HOP-18 = system: HOP-18
A498 = system: A498
LXFL 529 = system: LXFL 529
SW-620 = system: SW-620
NCI-H460 = system: NCI-H460
786-0 = system: 786-0
EKVX = system: EKVX
HT-29 = system: HT-29
SK-MEL-28 = system: SK-MEL-28
U-251 = system: U-251
SNB-78 = system: SNB-78
HCT-15 = system: HCT-15
A549 = system: A549
MOLT-4 = system: MOLT-4
NCI-H23 = system: NCI-H23
HCC 2998 = system: HCC 2998
M19-MEL = system: M19-MEL
SF-295 = system: SF-295
RXF 393 = system: RXF 393
HOP-92 = system: HOP-92
NCI-H522 = system: NCI-H522
OVCAR-3 = system: OVCAR-3
XF498 = system: XF498
SR = system: SR
OVCAR-5 = system: OVCAR-5
SK-MEL-2 = system: SK-MEL-2
NCI-H226 = system: NCI-H226
RPMI-8226 = system: RPMI-8226
KM12 = system: KM12
Malme-3M = system: Malme-3M
UACC-257 = system: UACC-257

O=C1CCCC/C1=C\c1ccc(Cl)c(Cl)c1
GI50 (SK-OV-3): 45.8 µM (inactive)
GI50 (SF-539): 17.2 µM (inactive)
GI50 (OVCAR-4): 18.2 µM (inactive)
GI50 (KM-20L2): 20.7 µM (inactive)
GI50 (IGROV-1): 25.2 µM (inactive)
GI50 (DMS-114): 18.7 µM (inactive)
GI50 (UACC-62): 23.4 µM (inactive)
GI50 (DLD-1): 23.2 µM (inactive)
GI50 (LOX IMVI): 18 µM (inactive)
GI50 (COLO 205): 35.1 µM (inactive)
GI50 (K562): 18.9 µM (inactive)
GI50 (HL-60): 19 µM (inactive)
GI50 (CCRF-CEM): 21.3 µM (inactive)
GI50 (HCT-116): 17.1 µM (inactive)
GI50 (ACHN): 18.3 µM (inactive)
GI50 (TK-10): 17 µM (inactive)
GI50 (OVCAR-8): 23.6 µM (inactive)
GI50 (SNB-19): 25.8 µM (inactive)
GI50 (DMS-273): 20 µM (inactive)
GI50 (SN12C): 16.6 µM (inactive)
GI50 (HOP-62): 57.7 µM (inactive)
GI50 (SNB-75): 16.3 µM (inactive)
GI50 (SF-268): 23.3 µM (inactive)
GI50 (UO-31): 17.8 µM (inactive)
GI50 (CAKI-1): 19.2 µM (inactive)
GI50 (M14): 19.9 µM (inactive)
GI50 (SK-MEL-5): 17.2 µM (inactive)
GI50 (HOP-18): 18.8 µM (inactive)
GI50 (A498): 58.5 µM (inactive)
GI50 (LXFL 529): 17.1 µM (inactive)
GI50 (SW-620): 21.6 µM (inactive)
GI50 (NCI-H460): 20.1 µM (inactive)
GI50 (786-0): > 10 µM (inactive)
GI50 (EKVX): 45.7 µM (inactive)
GI50 (HT-29): 22.3 µM (inactive)
GI50 (SK-MEL-28): 19.1 µM (inactive)
GI50 (U-251): 16.6 µM (inactive)
GI50 (SNB-78): 19.1 µM (inactive)
GI50 (HCT-15): 19.1 µM
GI50 (A549): 34.4 µM (inactive)
GI50 (MOLT-4): 18.1 µM (inactive)
GI50 (NCI-H23): 23.3 µM (inactive)
GI50 (HCC 2998): 21.7 µM (inactive)
GI50 (M19-MEL): 20.7 µM (inactive)

O=C1OC(CC(=O)c2ccc(F)cc2)C(Cl)=C1Cl (configuration not stated)
GI50 (SK-OV-3): 49 µM (inactive)
GI50 (SF-539): 19 µM (inactive)
GI50 (OVCAR-4): 19.6 µM (inactive)
GI50 (SF-295): > 100 µM (inactive)
GI50 (IGROV-1): 27.2 µM (inactive)
GI50 (RXF 393): 21.6 µM (inactive)
GI50 (HOP-92): 20 µM (inactive)
GI50 (DMS-114): 40.3 µM (inactive)
GI50 (UACC-62): 17 µM (inactive)
GI50 (NCI-H522): 18.9 µM (inactive)
GI50 (DLD-1): 21.6 µM (inactive)
GI50 (LOX IMVI): 16.8 µM (inactive)
GI50 (OVCAR-3): 22.1 µM (inactive)
GI50 (K562): 33 µM (inactive)
GI50 (HL-60): 24.7 µM (inactive)
GI50 (XF498): 26.7 µM (inactive)
GI50 (CCRF-CEM): 29.4 µM (inactive)
GI50 (HCT-116): 23.3 µM (inactive)
GI50 (SR): 27.2 µM (inactive)
GI50 (ACHN): 34.4 µM (inactive)
GI50 (TK-10): 40.2 µM (inactive)
GI50 (OVCAR-8): 19.4 µM (inactive)
GI50 (SNB-19): 22.3 µM (inactive)
GI50 (OVCAR-5): 24.5 µM (inactive)
GI50 (SN12C): 19.4 µM (inactive)
GI50 (SK-MEL-2): 22.4 µM (inactive)
GI50 (HOP-62): 32.1 µM (inactive)
GI50 (SF-268): > 10 µM (inactive)
GI50 (UO-31): 22.3 µM (inactive)
GI50 (CAKI-1): 39.4 µM (inactive)
GI50 (NCI-H226): 18.5 µM (inactive)
GI50 (RPMI-8226): 34.2 µM (inactive)
GI50 (M14): 22.9 µM (inactive)
GI50 (SK-MEL-5): 25.5 µM (inactive)
GI50 (HOP-18): 17.9 µM (inactive)
GI50 (LXFL 529): 18 µM (inactive)
GI50 (KM12): 16.7 µM (inactive)
GI50 (SW-620): 23.3 µM (inactive)
GI50 (NCI-H460): 21.5 µM (inactive)
GI50 (786-0): 18.5 µM (inactive)
GI50 (Malme-3M): 17.2 µM (inactive)
GI50 (UACC-257): 16.9 µM (inactive)
GI50 (EKVX): 48.4 µM (inactive)
GI50 (HT-29): 18.2 µM (inactive)
GI50 (SK-MEL-28): 43.3 µM (inactive)
GI50 (U-251): 20 µM (inactive)
GI50 (SNB-78): 37.9 µM (inactive)
GI50 (HCT-15): 18.4 µM
GI50 (A549): 40 µM (inactive)
GI50 (MOLT-4): 29 µM (inactive)
GI50 (NCI-H23): 29.6 µM (inactive)
GI50 (HCC 2998): 16.5 µM (inactive)
GI50 (M19-MEL): 73.3 µM (inactive)
